Measurements published in PMC6599250, “Functional diversity of inhibitors tackling the differentiation blockage of MLL-rearranged leukemia” (Journal of Hematology & Oncology, 2019).
Where two headings read alike, the source gives them in different places.

Assays:
SEM (MLL-AF4) cells = test: Cell proliferation (alamarBlue) SEM; format: cell-based; settings: SEM (MLL-AF4), read-out: IC50 proliferation
Procedure: (§1) Cells were seeded in the optimal growth medium at 4000–5000 cells/well in a 96 MTP and cultured 18–24 h before inhibitor treatment.

HL-60 (MLL-WT) cells = test: Cell proliferation (alamarBlue) HL-60; format: cell-based; settings: Homo sapiens, HL-60 (MLL-WT), read-out: IC50 proliferation
Procedure: as §1

Jurkat (MLL-WT) cells = test: Cell proliferation (alamarBlue) Jurkat; format: cell-based; settings: Homo sapiens, Jurkat (MLL-WT)
Procedure: as §1

RS4;11 (MLL-AF4) cells = test: Cell proliferation (alamarBlue) RS4;11; format: cell-based; settings: Homo sapiens, RS4-11, RS4;11 (MLL-AF4), read-out: IC50 proliferation
Procedure: as §1

OCI-AML-5 (MLL-WT) cells = test: Cell proliferation (alamarBlue) OCI-AML-5; format: cell-based; settings: Homo sapiens, OCI-AML-5, OCI-AML-5 (MLL-WT), read-out: IC50 proliferation
Procedure: as §1

HL-60 cells = test: CD11b protein expression by flow cytometry, HL-60; format: cell-based; settings: non-fused HL-60 cell line, 4 and 7 days of treatment
Summary of the method: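 Cells seeded 24 h before inhibitor treatment lasting 4 or 7 days. Then stained with CD11b-APC plus DAPI, or AnnexinV-FITC plus PI, and analysed by flow cytometry.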

[1] = tested on: MV4-11, MOLM-13 and HL-60 cells; test: Cell cycle analysis (PI, flow cytometry); format: cell-based; settings: 4 days of treatment (Figure S2)
Procedure: Cells were washed with PBS and fixed overnight at − 20 °C with 70% ethanol. Fixed cells were stained with PI solution (Sigma-Aldrich St. Louis, MO, USA) solution containing RNase A (Qiagen, Hilden, Germany). Fluorescence was measured with FACS Canto II (BD Biosciences, Heidelberg, Germany) flow cytometer and data was analyzed with FACSDiva software.

KOPN-8 (MLL-ENL) cells = test: Cell proliferation (alamarBlue) KOPN-8; format: cell-based; settings: Homo sapiens, KOPN-8, KOPN-8 (MLL-ENL), read-out: IC50 proliferation
Procedure: as §1

NOMO-1 (MLL-AF9) cells = test: Cell proliferation (alamarBlue) NOMO-1; format: cell-based; settings: Homo sapiens, NOMO-1, NOMO-1 (MLL-AF9), read-out: IC50 proliferation
Procedure: as §1

AML patients = settings: cited from earlier work
MOLM-14 (MLL-AF9) cells = test: Cell proliferation (alamarBlue) MOLM-14; format: cell-based; settings: Homo sapiens, MOLM-14, MOLM-14 (MLL-AF9), read-out: IC50 proliferation
Procedure: as §1

[2] = tested on: MV4-11, MOLM-13 and HL-60 cells; test: Cell proliferation, all three tested AML cell lines; format: cell-based; settings: 96 h; all tested cell lines (MV4-11, MOLM-13, HL-60), 4 days of treatment (Fig. 1a); read-out: anti-proliferation IC50s
Procedure: Cells were seeded in the optimal growth medium at 4000–5000 cells/well in a 96 MTP and cultured 18–24 h before inhibitor treatment. Upon treatment with the indicated inhibitor, cells were cultured for 24 h, 96 h, and 168 h and effects on proliferation were determined using alamarBlue Cell Viability Reagent (Thermo Fisher Scientific, Waltham, MA, USA).

MOLM-13 (MLL-AF9) cells = test: Cell proliferation (alamarBlue) MOLM-13; format: cell-based; settings: Homo sapiens, MOLM-13, MOLM-13 (MLL-AF9), read-out: IC50 proliferation
Procedure: as §1

[3] = tested on: OCI-AML-2 (MLL-AF9) cells; test: Cell proliferation (alamarBlue) OCI-AML-2; format: cell-based; settings: Homo sapiens, OCI-AML2, OCI-AML-2 (MLL-AF9), read-out: IC50 proliferation
Procedure: as §1

ML-2 (MLL-AF6) cells = test: Cell proliferation (alamarBlue) ML-2; format: cell-based; settings: ML-2 (MLL-AF6), read-out: IC50 proliferation
Procedure: as §1

EOL-1 (MLL-TD) cells = test: Cell proliferation (alamarBlue) EOL-1; format: cell-based; settings: Homo sapiens, EOL1, EOL-1 (MLL-TD), read-out: IC50 proliferation
Procedure: as §1

[4] = tested on: MLL-fused cell lines (MV4-11, MOLM-13); test: CD11b protein expression by flow cytometry, MLL-fused lines; format: cell-based; settings: 4 and 7 days of treatment
Procedure: Four thousand cells per well were seeded 24 h before they were treated with the indicated inhibitor in a 96 MTP. After 4 or 7 days of treatment, cells were washed with PBS and stained with CD11b - APC (BioLegend, San Diego, California, USA) and DAPI (Thermo Fisher Scientific, Waltham, Massachusetts, USA) or AnnexinV – FITC (BioLegend, San Diego, California, USA) and PI solution (Sigma-Aldrich St. Louis, Missouri, USA) using the FACS Canto II (BD Biosciences, Heidelberg, Germany) and data was analyzed with FACSDiva software.

OCI-AML-3 (MLL-WT) cells = test: Cell proliferation (alamarBlue) OCI-AML-3; format: cell-based; settings: Homo sapiens, OCI-AML-3, OCI-AML-3 (MLL-WT), read-out: IC50 proliferation
Procedure: as §1

MV4-11 (MLL-AF4) cells = test: Cell proliferation (alamarBlue) MV4-11; format: cell-based; settings: Homo sapiens, MV4-11, MV4-11 (MLL-AF4), read-out: IC50 proliferation
Procedure: as §1

Compound `Cc1sc2c(c1C)C(c1ccc(Cl)cc1)=N[C@@H](CC(=O)Nc1ccc(O)cc1)c1nnc(C)n1-2` [OTX015] has an IC50 (SEM (MLL-AF4) cells; D1) greater than 10000 nM, an IC50 (SEM (MLL-AF4) cells; D4) of 70 nM and an IC50 (SEM (MLL-AF4) cells; D7) of 80 nM. It also gave an IC50 (HL-60 (MLL-WT) cells; 24 h, 1 day of treatment (D1)) greater than 10000 nM, an IC50 (HL-60 (MLL-WT) cells; 96 h, 4 days of treatment (D4)) of 70 nM and an IC50 (HL-60 (MLL-WT) cells; 168 h, 7 days of treatment (D7)) of 270 nM. For the same compound, the IC50 (Jurkat (MLL-WT) cells; D1, read-out: IC50 proliferation) was greater than 10000 nM, the IC50 (Jurkat (MLL-WT) cells; D4, read-out: IC50 proliferation) was 100 nM and the IC50 (Jurkat (MLL-WT) cells; D7, read-out: IC50 proliferation) was 170 nM. The IC50 (RS4;11 (MLL-AF4) cells; D1) was greater than 10000 nM, the IC50 (RS4;11 (MLL-AF4) cells; D4) was 170 nM and the IC50 (RS4;11 (MLL-AF4) cells; D7) was 150 nM. It also gave an IC50 (OCI-AML-5 (MLL-WT) cells; D1) greater than 10000 nM, an IC50 (OCI-AML-5 (MLL-WT) cells; D4) of 70 nM and an IC50 (OCI-AML-5 (MLL-WT) cells; D7) of 80 nM. The “CD11b level” value (HL-60 cells) was “treatment did”, the “cell cycle effect” value [1] was “decrease of cells in S and G2/M phase with increasing concentrations” and the IC50 (KOPN-8 (MLL-ENL) cells; D1) was greater than 10000 nM. The IC50 (KOPN-8 (MLL-ENL) cells; D4) was 300 nM, the IC50 (KOPN-8 (MLL-ENL) cells; D7) was 320 nM and the IC50 (NOMO-1 (MLL-AF9) cells; D1) was greater than 10000 nM. The IC50 (NOMO-1 (MLL-AF9) cells; D4) was 10 nM, the IC50 (NOMO-1 (MLL-AF9) cells; D7) was 10 nM and the “clinical activity in AML patients” value (AML patients; AML patients harboring diverse driving mutations) was “partial blast clearance and recovery of platelets”. The “dose-limiting effect in patients” value (AML patients; patients with incomplete bone marrow failure) was “severe thrombocytopenia as dose-limiting effect”, the IC50 (MOLM-14 (MLL-AF9) cells; D1) was greater than 10000 nM and the IC50 (MOLM-14 (MLL-AF9) cells; D4) was 40 nM. The IC50 (MOLM-14 (MLL-AF9) cells; D7) was 60 nM, the IC50 [2] was 30 to 140 nM and the IC50 (MOLM-13 (MLL-AF9) cells; D1) was greater than 10000 nM. It also gave an IC50 (MOLM-13 (MLL-AF9) cells; D4) of 30 nM, an IC50 (MOLM-13 (MLL-AF9) cells; D7) of 110 nM and an IC50 ([3]; D1) greater than 10000 nM. The IC50 ([3]; D7) was 80 nM, the IC50 (ML-2 (MLL-AF6) cells; D1) was greater than 10000 nM and the IC50 (ML-2 (MLL-AF6) cells; D4) was 390 nM. For the same compound, the IC50 (ML-2 (MLL-AF6) cells; D7) was 180 nM, the IC50 (EOL-1 (MLL-TD) cells; D1) was greater than 10000 nM and the IC50 (EOL-1 (MLL-TD) cells; D4) was 30 nM. The IC50 (EOL-1 (MLL-TD) cells; D7) was 40 nM, the “CD11b protein level” value [4] was “increased CD11b protein level in a dose and time-dependent manner” and the IC50 (OCI-AML-3 (MLL-WT) cells; D1) was greater than 10000 nM. It also gave an IC50 (OCI-AML-3 (MLL-WT) cells; D4) of 40 nM, an IC50 (OCI-AML-3 (MLL-WT) cells; D7) of 70 nM and an IC50 (MV4-11 (MLL-AF4) cells; D1) greater than 10000 nM. For the same compound, the IC50 (MV4-11 (MLL-AF4) cells; D4) was 140 nM and the IC50 (MV4-11 (MLL-AF4) cells; D7) was 180 nM.
